From patent US20030130180A1, “Utilization of an aminopeptidase inhibitor” (priority 2000, published 2003)

System: Karpas cells
Test: Detection of surface protein combinations of the protein network on untreated (V1) and actinonin-treated (V2) Karpas cells
Type: cell-based
Conditions: for V2 no. of cells In 1/1OOO / V2 No. of cells In 1/1000: actinonin-treated Karpas cells (V2)
Description: Principally, detecting of the surface protein combinations may comprise procedural steps of an automated method for determining molecular classes, molecular groups or molecular parts in a solid or liquid object according to DE 197 09 348 C. In these steps, surface proteins may be examined and measured in one and the same object, i.e. in a sample of immune cells and/or tumor cells for example, by sequentially applying reagent solutions Yn (n=1,2,3, . . . N) by means of an automated apparatus, said procedural steps being: I. taking a first reagent solution Y1 from a vessel containing the reagent solution, II. applying said reagent solution Y1 to the object which is on an object slide, III. allowing the reagent solution to react for an automatically set period of time, IV. recording at least one individual labeling pattern of the object previously labeled with said first reagent solution Y1, V. repeating steps I-IV by applying said first reagent solution Y1 or a second reagent solution Y2 or a mixture of said first and second reagent solutions, and VI. repeating steps I to V with further reagent solutions Yn (n=2,3, . . . N) or a mixture thereof and whereby the labeling distribution patterns obtained in each cycle of the method are turned into a complex molecular combination pattern of the object to be examined by computer-aided image overlay. From this combination pattern, information may be gained on the presence of the above mentioned proteins, thus also allowing detection of the surface protein combinations, if the reagent solutions used contain labeled substances directed against the proteins in question. In numerous examinations, it was possible to identify the 30 cell surface proteins already listed above which belong to a specific protein network controlling the early polarization stages of tumor cells and immune cells. In a further examination, surface protein combinations of this protein network of Karpas cells were detected, both in untreated form and after treatment with the aminopeptidase inhibitor actinonin. For this purpose, two groups V1 and V2 of Karpas cells were formed, with the cells of group Vl remaining untreated, while the cells of group V2 were treated with actinonin. Table 2 lists those surface protein combinations which are present both in the actinonin-treated cells and in the untreated cells. However, this table and the further tables 3 and 4 only give examples of 18 of the 30 proteins, with the detected proteins being designated 1 and the non-detected proteins being designated 0. The proteins are continuously numbered 1 to 18, with the nomenclature being notable from table 1. [table] The cell numbers stated in tables 2 to 4 refer to each 1,000 cells examined in groups V1 and V2. Table 3 lists the surface protein combinations which only occur in the untreated Karpas cells and are never found in the actinonin-treated Karpas cells. The number of protein combinations listed in this table 3 amounts to 131. Finally, table 4 exclusively lists those surface protein combinations which occur exclusively in the actinonin-treated Karpas cells. It may be gathered from tables 2 to 4 that, if one examines merely 18 proteins of the 30 proteins, a total of 394 different surface protein combinations will occur, with a total of 334 different combinations occurring in the untreated cells and a total of 263 different combinations being detected in the treated cells.

## CCCCC[C@H](CC(=O)NO)C(=O)N[C@H](C(=O)N1CCC[C@H]1CO)C(C)C [actinonin]
18 of the 30 proteins examined, untreated cells: 334, overall 394
  number of different surface protein combinations detected in the treated cells: 263
Table 2, 18 proteins
  number of surface protein combinations present both in actinonin-treated and untreated cells: 203
Table 3, 18 proteins
  number of surface protein combinations occurring only in untreated Karpas cells, never found in actinonin-treated cells: 131
Table 4, 18 proteins
  number of surface protein combinations occurring exclusively in the actinonin-treated Karpas cells: 60
actinonin-treated Karpas cells
  effect of the modification of surface protein combinations on cell polarization: specific blocking of cell polarization
Protein code No. 149, proteins 1-18 binary 000100010111001000
  V2 no. of cells In 1/1OOO: 0.1 1/1OOO
Protein code No. 150, proteins 1-18 binary 000000010101011000
  V2 no. of cells In 1/1OOO: 0.1 1/1OOO
Protein code No. 151, proteins 1-18 binary 011000001101001000
  V2 no. of cells In 1/1OOO: 0.2 1/1OOO
Protein code No. 152, proteins 1-18 binary 010000011101001000
  V2 no. of cells In 1/1OOO: 0.2 1/1OOO
Protein code No. 153, proteins 1-18 binary 001100010111011100
  V2 no. of cells In 1/1OOO: 0.2 1/1OOO
Protein code No. 154, proteins 1-18 binary 000000001000001000
  V2 no. of cells In 1/1OOO: 0.2 1/1OOO
Protein code No. 155, proteins 1-18 binary 111000011100011100
  V2 no. of cells In 1/1OOO: 0.3 1/1OOO
Protein code No. 156, proteins 1-18 binary 010000001101000000
  V2 no. of cells In 1/1OOO: 0.3 1/1OOO
Protein code No. 157, proteins 1-18 binary 001000010001000100
  V2 no. of cells In 1/1OOO: 0.3 1/1OOO
Protein code No. 158, proteins 1-18 binary 100100000000001000
  V2 no. of cells In 1/1OOO: 0.5 1/1OOO
Protein code No. 159, proteins 1-18 binary 010000011001000000
  V2 no. of cells In 1/1OOO: 0.5 1/1OOO
Protein code No. 160, proteins 1-18 binary 001000010101011100
  V2 no. of cells In 1/1OOO: 0.5 1/1OOO
Protein code No. 161, proteins 1-18 binary 000000011001001000
  V2 no. of cells In 1/1OOO: 0.5 1/1OOO
Protein code No. 162 (second line so numbered, r189), proteins 1-18 binary 010000001100011000
  V2 no. of cells In 1/1OOO: 0.2 1/1OOO
Protein code No. 162, proteins 1-18 binary 011100011101011000
  V2 no. of cells In 1/1OOO: 0.1 1/1OOO
Protein code No. 163, proteins 1-18 binary 011000011100011100
  V2 no. of cells In 1/1OOO: 0.1 1/1OOO
Protein code No. 164, proteins 1-18 binary 010000001101001000
  V2 no. of cells In 1/1OOO: 0.1 1/1OOO
Protein code No. 165, proteins 1-18 binary 001000010001001100
  V2 no. of cells In 1/1OOO: 0.1 1/1OOO
Protein code No. 166, proteins 1-18 binary 111100111111011100
  V2 no. of cells In 1/1OOO: 0.2 1/1OOO
Protein code No. 167, proteins 1-18 binary 111100001100001100
  V2 no. of cells In 1/1OOO: 0.2 1/1OOO
Protein code No. 168, proteins 1-18 binary 011000011100000000
  V2 no. of cells In 1/1OOO: 0.2 1/1OOO
Protein code No. 169, proteins 1-18 binary 001100010000001000
  V2 no. of cells In 1/1OOO: 0.2 1/1OOO
Protein code No. 170, proteins 1-18 binary 001100000001001000
  V2 no. of cells In 1/1OOO: 0.2 1/1OOO
Protein code No. 171, proteins 1-18 binary 001000011000000000
  V2 no. of cells In 1/1OOO: 0.2 1/1OOO
Protein code No. 172, proteins 1-18 binary 000000010001011000
  V2 no. of cells In 1/1OOO: 0.2 1/1OOO
Protein code No. 173, proteins 1-18 binary 011100011100011100
  V2 no. of cells In 1/1OOO: 0.3 1/1OOO
Protein code No. 174, proteins 1-18 binary 111100001100011100
  V2 no. of cells In 1/1OOO: 0.1 1/1OOO
Protein code No. 175, proteins 1-18 binary 101100011101011000
  V2 no. of cells In 1/1OOO: 0.1 1/1OOO
Protein code No. 176, proteins 1-18 binary 101000010011001000
  V2 no. of cells In 1/1OOO: 0.1 1/1OOO
Protein code No. 177, proteins 1-18 binary 100000000000001000
  V2 no. of cells In 1/1OOO: 0.1 1/1OOO
Protein code No. 178, proteins 1-18 binary 000100010101011000
  V2 no. of cells In 1/1OOO: 0.1 1/1OOO
Protein code No. 179, proteins 1-18 binary 000000001101001000
  V2 no. of cells In 1/1OOO: 0.1 1/1OOO
Protein code No. 180, proteins 1-18 binary 111100011111011000
  V2 no. of cells In 1/1OOO: 0.2 1/1OOO
Protein code No. 181, proteins 1-18 binary 101100110101011000
  V2 no. of cells In 1/1OOO: 0.2 1/1OOO
Protein code No. 183, proteins 1-18 binary 001100010100001000
  V2 no. of cells In 1/1OOO: 0.2 1/1OOO
Protein code No. 184, proteins 1-18 binary 001000011011011000
  V2 no. of cells In 1/1OOO: 0.2 1/1OOO
Protein code No. 185, proteins 1-18 binary 001000011011000000
  V2 no. of cells In 1/1OOO: 0.2 1/1OOO
Protein code No. 186, proteins 1-18 binary 000000011011000000
  V2 no. of cells In 1/1OOO: 0.2 1/1OOO
Protein code No. 187, proteins 1-18 binary 111000001100001000
  V2 no. of cells In 1/1OOO: 0.1 1/1OOO
Protein code No. 188, proteins 1-18 binary 101000110111011100
  V2 no. of cells In 1/1OOO: 0.1 1/1OOO
Protein code No. 189, proteins 1-18 binary 011100011100001100
  V2 no. of cells In 1/1OOO: 0.1 1/1OOO
Protein code No. 190, proteins 1-18 binary 011100011001001000
  V2 no. of cells In 1/1OOO: 0.1 1/1OOO
Protein code No. 191, proteins 1-18 binary 010000001111001000
  V2 no. of cells In 1/1OOO: 0.1 1/1OOO
Protein code No. 192, proteins 1-18 binary 001100011111011100
  V2 no. of cells In 1/1OOO: 0.1 1/1OOO
Protein code No. 193, proteins 1-18 binary 001100010011000000
  V2 no. of cells In 1/1OOO: 0.1 1/1OOO
Protein code No. 194, proteins 1-18 binary 001000110011011000
  V2 no. of cells In 1/1OOO: 0.1 1/1OOO
Protein code No. 195, proteins 1-18 binary 001000010011001100
  V2 no. of cells In 1/1OOO: 0.1 1/1OOO
Protein code No. 198 (first line so numbered, r203), proteins 1-18 binary 001000010010000000
  V2 no. of cells In 1/1OOO: 0.1 1/1OOO
Surface protein combination No. 3, binary code proteins 1-18: 011100011101011100, untreated V1: 0.8
  V2 No. of cells In 1/1000: 0.0 1/1000
Surface protein combination No. 4, binary code proteins 1-18: 101000010011011000, untreated V1: 0.7
  V2 No. of cells In 1/1000: 0.0 1/1000
Surface protein combination No. 5, binary code proteins 1-18: 001000110101011000, untreated V1: 0.7
  V2 No. of cells In 1/1000: 0.0 1/1000
Surface protein combination No. 6, binary code proteins 1-18: 000100000000001100, untreated V1: 0.7
  V2 No. of cells In 1/1000: 0.0 1/1000
Surface protein combination No. 7, binary code proteins 1-18: 101000011111011000, untreated V1: 0.6
  V2 No. of cells In 1/1000: 0.0 1/1000
Surface protein combination No. 8, binary code proteins 1-18: 001000000010000000, untreated V1: 0.6
  V2 No. of cells In 1/1000: 0.0 1/1000
Surface protein combination No. 9, binary code proteins 1-18: 111100011101011100, untreated V1: 0.5
  V2 No. of cells In 1/1000: 0.0 1/1000
Surface protein combination No. 10, binary code proteins 1-18: 001100011101000000, untreated V1: 0.5
  V2 No. of cells In 1/1000: 0.0 1/1000
Surface protein combination No. 11, binary code proteins 1-18: 000000011111001000, untreated V1: 0.5
  V2 No. of cells In 1/1000: 0.0 1/1000
Surface protein combination No. 12, binary code proteins 1-18: 111000011101011100, untreated V1: 0.4
  V2 No. of cells In 1/1000: 0.0 1/1000
Surface protein combination No. 13, binary code proteins 1-18: 110000001100001000, untreated V1: 0.4
  V2 No. of cells In 1/1000: 0.0 1/1000
Surface protein combination No. 14, binary code proteins 1-18: 101100011111001000, untreated V1: 0.4
  V2 No. of cells In 1/1000: 0.0 1/1000
Surface protein combination No. 15, binary code proteins 1-18: 101000010001011000, untreated V1: 0.4
  V2 No. of cells In 1/1000: 0.0 1/1000
Surface protein combination No. 16, binary code proteins 1-18: 100100000100011000, untreated V1: 0.4
  V2 No. of cells In 1/1000: 0.0 1/1000
Surface protein combination No. 17, binary code proteins 1-18: 100100000001001100, untreated V1: 0.4
  V2 No. of cells In 1/1000: 0.0 1/1000
Surface protein combination No. 18, binary code proteins 1-18: 100000000000011000, untreated V1: 0.4
  V2 No. of cells In 1/1000: 0.0 1/1000
